Entries after “also recorded” stand apart in the source; their conditions may differ. Like-named read-outs stand apart in the source and are kept apart here.
Assays:
5-HT1A = molecular target: T1, 5-HT1A (Rattus norvegicus, UniProt P19327); assay: [3H]WAY100635 receptor binding; conditions: read-out: Ki 5-HT1A; [3H]WAY100635
T1 sequence (P19327 1-422): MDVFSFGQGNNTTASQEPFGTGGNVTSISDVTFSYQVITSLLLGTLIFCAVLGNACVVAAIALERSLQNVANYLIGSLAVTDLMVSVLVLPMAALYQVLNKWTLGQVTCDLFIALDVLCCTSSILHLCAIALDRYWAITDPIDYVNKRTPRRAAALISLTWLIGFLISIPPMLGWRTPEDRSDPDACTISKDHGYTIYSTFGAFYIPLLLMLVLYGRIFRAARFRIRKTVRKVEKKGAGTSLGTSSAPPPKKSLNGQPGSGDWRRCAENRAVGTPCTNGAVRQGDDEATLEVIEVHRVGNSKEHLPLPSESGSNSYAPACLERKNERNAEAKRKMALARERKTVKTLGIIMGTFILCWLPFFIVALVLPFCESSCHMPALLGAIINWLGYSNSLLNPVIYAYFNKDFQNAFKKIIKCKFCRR

[1] = system: lipid peroxidation in rat brain homogenate; assay: lipid peroxidation initiated by Fe2+-ascorbic acid in rat brain homogenates (TBARS); type: biochemical
Protocol: Rat brain homogenate was made in 0.9% saline containing 10 mg tissue/ml. The rates of membrane lipid peroxidation were measured by the formation of thiobarbituric acid (TBA)-reactive substance (TBARS). Rat brain homogenates (1 ml) were incubated at 37° C. for 5 min with 10 μl of test compound or vehicle. […] After 30 min of incubation, the reaction was stopped by adding 0.1 ml of 0.2% BHT. TBA reagent was then added and the mixture was heated for 30 min in a boiling water bath. […] The amount of TBARS was quantified using the linear regression obtained from malondialdehyde (MDA) standards.

α1-adrenergic receptor = assay: noradrenaline-induced contraction in isolated rat thoracic aorta (pA2); set-up: species or system Wistar rat; conditions: Schild plot, mean ± SEM of eight, listed as KMST
Protocol: Clonidine, noradrenaline and serotonin (10^−8˜10^−4 M) were added to the bath to induce contractions after pretreatment with KMST for 15 min.

rats = assay: LPS-induced mortality; conditions: rat, in vivo
α2 receptors = assay: [3H]yohimbine receptor binding in rat cortex; set-up: species or system Wistar rat
Protocol: (§1) The homogenate was pressure filtered through muslin. Filtrate was centrifuged at 1000 g for 10 min. […] Protein content was determined by Bradford's method.

[2] = system: IL-1β, IL-6, IFN-γ and TNF-α; assay: LPS-induced plasma cytokine immunoreactivity; type: in vivo, rat; conditions: 1 mg kg−1, i.v., pretreatment
Protocol: (§2) In brief, Wistar rats weighing 250-300 g were anesthetized with pentobarbital sodium (50 mg kg^−1, i.p.). Following tracheal cannulation, systemic arterial BP and HR were recorded from the femoral artery by a pressure transducer (model P10EZ; Spectramed, Oxnard, Calif., U.S.A.) connected to a recorder (GOULD, Valley View, Ohio, Model P50). Body temperature was maintained at 37° C. by an electric heating pad. A femoral vein was cannulated for intravenous injection of drugs and LPS (10 mg kg^−1).
Blood was collected from venous cannula, injected into ice-cold heparinized Eppendorf tubes and centrifuged at 1500 rpm for 10 min at 4° C. Plasma supernatant was stored at −70° C. until analyzed. Solid phase enzyme immunoassay that specifically detects murine IL-1β, IL-6, IFN-γ and TNF-α was used with a detection limit of >10 pg/ml (Endogen, U.S.A). Pre-treatment with KMST and other agents was performed 15 minutes before intravenous injection of LPS. Blood was collected from venous cannula. Blood glucose was measured with a glucose test strip (Glucotide, Bayer, U.S.A) at 1, 3 and 5 hours.

[3] = system: epinephrine-induced human platelet aggregation; assay: epinephrine-induced human platelet aggregation; type: cell-based; conditions: epinephrine 5 μM, PRP
Protocol: Venous blood from human volunteer donors was collected in 10 ml Monovette containing 1 ml citrate solution (0.106M trisodium citrate; Sarstedt, Nümbrecht, Germany) and centrifuged (400 g, 10 min, 20° C.). […] After centrifugation (10 min, 2000 g, 20° C.), the platelet pellet was resuspended in wishing buffer (113 mM NaCl, 4 mM Na2HPO4, 24 mM NaH2PO4, 4 mM KCl, 0.2 mM EGTA(Ethylene glycol-bis-(2-aminoethyl ether) N,N,N′-tetraacetic acid), 0.1% (wt/vol) glucose, pH 6.0) and recentrifuged (10 min, 2000 g, 20° C.). The washed platelets were resuspended in incubation buffer (134 mM NaCl, 12 mM NaHCO3, 2.9 mM KCl, 0.34 mM NaH2PO4, 5 mM HEPES (N-(2-hydroxyethyl) piperazine-N′-(2-ethanesulfonic acid)), 5 mM glucose, pH7.4), cells were counted in a Sysmex hematology analyzer (Sysmex, CDA-500, Japan) and adjusted to a final concentration of 2×10^8 platelets/ml.
The aggregation of the platelets in platelet-rich plasma (PRP) was measured as a change in light absorbance by a Payton dual-channel aggregometer (NBS, Hema tracer, Japan). PRP (240 μL) was stirred (700 rpm) at 37° C. for 1 min, and 5 μL epinephrine (final concentration 5 μM), serotonin (final concentration 5 μM) was added. After which the rate of primary aggregation (1/min) and maximum aggregation (%) at 5 min were recorded. To study the effects of compounds on epinephrine or serotonin-induced aggregation, PRP was incubated with 5 μL of compounds at various concentrations for 1 min before epinephrine or serotonin was added. IC50 values given were calculated from the secondary aggregation data.

M2 = M2 receptor binding; set-up: species or system guinea pig
β1 receptors = molecular target: T2, β1 receptors (Rattus norvegicus, UniProt P18090); assay: [3H]CGP-12177 receptor binding in rat ventricle; set-up: species or system Wistar rat; conditions: [3H]CGP-12177, rat ventricle
T2 construct: from tissue; host or cells: Wistar rat heart (ventricle) membranes
T2 sequence (P18090 whole entry): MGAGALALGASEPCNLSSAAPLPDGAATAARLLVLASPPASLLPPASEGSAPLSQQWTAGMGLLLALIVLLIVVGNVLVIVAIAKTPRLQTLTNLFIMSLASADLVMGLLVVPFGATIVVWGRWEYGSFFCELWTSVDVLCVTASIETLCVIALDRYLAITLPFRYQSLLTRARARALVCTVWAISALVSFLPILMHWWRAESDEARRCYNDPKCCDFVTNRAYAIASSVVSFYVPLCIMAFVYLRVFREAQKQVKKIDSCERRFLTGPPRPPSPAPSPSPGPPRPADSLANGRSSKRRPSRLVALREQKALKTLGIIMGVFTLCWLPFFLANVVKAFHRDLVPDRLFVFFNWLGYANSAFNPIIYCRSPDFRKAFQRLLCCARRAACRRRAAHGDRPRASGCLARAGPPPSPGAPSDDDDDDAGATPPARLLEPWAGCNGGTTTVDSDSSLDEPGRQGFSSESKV
Protocol: as §1

[4] = system: pentobarbital-anesthetized rats; assay: intravenous injection in pentobarbital-anesthetized rats, BP and HR; type: in vivo, Wistar rat; conditions: intravenous administration
Protocol: as §2

[5] = system: phenylephrine-induced contractions in rat thoracic aorta; assay: LPS-induced vascular hyporeactivity: phenylephrine-induced contractions in rat thoracic aorta; type: in vivo, Wistar rat; conditions: for pD2 at 3rd hr / pD2 at 5th hr: pD2 to phenylephrine
[6] = agent given after LPS injection (1 hr)
[7] = agent given before LPS injection (30 min)

## CC=Cc1ccc(OCC(O)CN2CCN(c3cccc(Cl)c3)CC2)c(OC)c1 (stereo not drawn) [Compound 1]
5-HT1A
  Ki: > 10 µM
[1]; rat brain homogenate
  potency of KMST relative to ascorbic acid, lipid peroxidation: ~3 times
  potency of KMST relative to trazodone, lipid peroxidation: ~30 times
  potency of KMST relative to yohimbine, lipid peroxidation: approximately 5 times
[1]; rat brain homogenates, listed as KMST, read-out: IC50 inhibiting lipid peroxidation initiated by Fe2+-ascorbic acid
  IC50: 2680 nM
α1-adrenergic receptor
  α1 pA2 value: 7.97±0.39
rats
  LPS-induced death: did not prevent
  survival time after LPS: did prolong survival time
α2 receptors
  Ki: 1840 nM
α2 receptors; listed as KMST
  Ki: 1390 nM
[2]
  LPS-induced elevations of IL-1β, IL-6, IFN-γ and TNF-α levels: inhibited
[3]
  IC50: 2780 nM
M2
  Ki: > 10 µM
β1 receptors
  Ki: 72.8 nM
[4]
  mean BP and HR: dose-dependent decrease
  phenylephrine- and isoprenaline-induced changes in BP and HR: inhibited
[5]; 1 mg kg−1 i.v. before or after application of LPS, listed as KMST
  aortic contractility of LPS-treated rats versus vehicle group: improved the aortic contractility better than in vehicle group; also recorded: increased aortic contractility more than the vehicle group
[5]; [6]
  pD2 at 3rd hr: 6.29 ± 0.08
  pD2 at 5th hr: 5.57 ± 0.17
[5]; [7]
  pD2 at 3rd hr: 7.16 ± 0.18
  pD2 at 5th hr: 6.29 ± 0.11

Reference: US6887878B2, “KMST isoeugenol derivatives and pharmaceutical activity” (Ing-Jun Chen, priority 2003, dated 2005)
